# Results taken from patent EP4458412A1, “NOVEL PHOSPHOANTIGEN PRODRUG COMPOUND AND USE THEREOF” (University College Cardiff Consultants, Ltd., priority 2023, dated 2024).
# Legend:
# [1] = test system: T24 urinary bladder carcinoma cells; experiment: Europium-based (DELFIA) cytotoxicity assay: lysis of drug-sensitized T24 cells by expanded Vγ9/Vδ2 T cells; type: cell-based, Human; conditions: 10 nM ProPAgen, 2 h pretreatment, effector:target 80:1, compared with 10 µM Zoledronate
# Experimental: Human T24 urinary bladder carcinoma cell lines were cultured in PBS for 2 h at 37°C/5% CO2 without ProPAgens (i.e. untreated), containing 10 µM zoledronate (i.e. the clinically used small molecule drug) or the indicated HMBP phosphonodiamidate ProPAgens of the present invention, i.e. ProPAgen 9d at a concentration of 10nM, and ProPAgen 14d at a concentration of 10nM. A positive control for cell death (target cells incubated with 10% v/v DELFIA lysis buffer) and media-only treated control (no drug) were also included. The cells were then washed 3 times at 600 x g for 5 min in PBS to remove any excess drug and incubated in PBS with BATDA labelling agent (used at 1µl per ml) for 20 min at 37°C as before.
# In the meantime, ex vivo expanded Vy9/V62 T cells, i.e. Vy9/V62 T cells that have been expanded with 5µM Zoledronate and 100U/ml IL2 over a period of 14 days, were thawed, counted and resuspended to a cell concentration of 4 x 10^6 cells/ml. […]
# The level of killing of T24 cells was then measured via time-resolved fluorescence using a PHERAstar microplate reader (BMG Labtech). Specific lysis (% killing of T24 cells) was calculated as follows: [(experimental release - spontaneous release)/(maximal release - spontaneous release)] x 100. The data were processed and analyzed using Microsoft Excel and GraphPad Prism v9 software. […]
# [2] = test system: human Vγ9/Vδ2^+ T cells; experiment: Activation of human Vγ9/Vδ2+ T cells in PBMCs (CD69/CD25 upregulation, flow cytometry); type: cell-based; conditions: for activation of Vγ9/Vδ2 T cells at the highest concentration studied: 100 µM compared with 10 µM; for activation of Vγ9/Vδ2 T cells (rank in words): across the two series 9a-d and 14a-d, in vitro; for EC50: PBMCs incubated overnight, CD69+ CD25+ Vγ9/Vδ2 T cells, 10pM to 100µM
# Experimental: General: Healthy donor peripheral blood mononuclear cells (PBMCs) were harvested as described in Morita et al. 2007. In particular, blood was obtained in the presence of a mixture of heparin and ethylene diamino tetra acetic acid (EDTA) as anticoagulants (2 U/ml heparin, 1.5 mM EDTA) from consented healthy donors (approved by the NRES Committee West Midlands-Solihull Ethical Board; REC reference 14/WM/1254). Blood was then layered on a density gradient medium, lymphoprep (Stem Cell Technologies) and Peripheral blood mononuclear cells (PBMCs) were purified by gradient centrifugation. The cells were washed 2 times with Phosphate Buffered Saline (PBS), then resuspended in RPMI-1640 media supplemented with 2 mM L-glutamine, 25 mM HEPES, 1% sodium pyruvate, 50 µg/ml penicillin/streptomycin (Invitrogen) and 10% foetal calf serum.
# (§1) To assess the activation of Vy9/V62 T cells, PBMCs were seeded into U-bottom tissue culture-treated 96-well plates at a cell density of 500,000 cells per well. […] The cells were incubated at 37°C/5%CO2 overnight, and stained by flow cytometry for the following markers: viability (Zombie Aqua 1:400), CD3 (BV421 1:100), CD8 (BV650 1:200), Vγ9 (PEcy5 1:400), V62 (APC 1:200), CD69 (PE 1:25), CD25 (FITC 1:100). The samples were acquired via LSRFortessa X20 (BD Biosciences), and the data obtained were analysed using FlowJo v10 and GraphPad Prism v9 software.
# Peripheral blood γδ T-cells lack appreciable levels of surface CD69 or CD25 under steady state conditions, but T-cell receptor (TCR) stimulation upregulates both T-cell activation markers within 72 hours. PAg responsive Vy9/V62 T-cells were then distinguished by TCR Yγ9 and V62 expression and assessed for the upregulation CD69 and CD25. […]
# [3] = test system: CD8^+ T cells; experiment: Activation of CD8+ T cells in PBMC overnight cultures (CD69/CD25, flow cytometry); type: cell-based, human; conditions: for concentration without CD8+ T cell activation relative to Vγ9/Vδ2 T-cell activation EC50: 1 µM versus EC50; for activation of CD8+ T cells: up to a concentration of 1 µM, overnight PBMC culture
# Experimental: as §1
# Like peripheral blood γδ T-cells, peripheral blood CD8^+ T-cells lack appreciable levels of surface CD69 or CD25 under steady state conditions, but upon T-cell receptor (TCR) stimulation upregulate both T-cell activation markers within 72 hours. PAg responsive CD8 T-cells were then distinguished by TCR CD8 expression and assessed for the upregulation CD69 and CD25.
# [4] = test system: Vγ9/Vδ2 T cells; conditions: previously reported potencies (Hsiao 2014; Reichenberg 2003); cited from earlier work
# [5] = biological target: T1, carboxypeptidase Y (Saccharomyces cerevisiae, UniProt P00729); experiment: Carboxypeptidase Y assay (in vitro metabolism, 31P NMR); type: in vitro ADME; conditions: recombinant carboxypeptidase Y, 37 °C
# T1 sequence (P00729 112-532): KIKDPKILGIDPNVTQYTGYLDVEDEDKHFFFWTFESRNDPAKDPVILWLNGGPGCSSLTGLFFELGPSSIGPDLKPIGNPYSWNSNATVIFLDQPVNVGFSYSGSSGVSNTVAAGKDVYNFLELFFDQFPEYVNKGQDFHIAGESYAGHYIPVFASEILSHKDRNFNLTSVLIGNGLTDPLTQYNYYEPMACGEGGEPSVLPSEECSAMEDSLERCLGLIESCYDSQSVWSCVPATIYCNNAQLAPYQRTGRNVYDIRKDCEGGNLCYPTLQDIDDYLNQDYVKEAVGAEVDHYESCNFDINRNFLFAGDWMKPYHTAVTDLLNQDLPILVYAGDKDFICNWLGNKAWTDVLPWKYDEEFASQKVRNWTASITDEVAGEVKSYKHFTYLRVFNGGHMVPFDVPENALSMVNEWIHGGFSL
# Experimental: The in vitro metabolism of the phosphonodiamidate ProPAgens according to the present invention was investigated in a carboxypeptidase Y assay.
# The carboxypeptidase Y assay was carried out as previously reported by Mehellou et al. 2020, McGuigan et al. 2018 and McGuigan et al. 2014. 5.0 mg of the phosphonodiamidate ProPAgen 9b was dissolved in 0.2 mL of acetone, and 0.4 mL of Trizma buffer (pH 7.4) was added followed by 0.5 mg carboxypeptidase Y in 0.2 ml Trizma buffer (pH 7.4). The phosphonodiamidate ProPAgen 9b was incubated with recombinant carboxypeptidase Y at 37 °C and monitored the reaction by ^31P-NMR for 12 h. Recorded data were processed and analysed with Bruker Topspin 2.1 software.
# [6] = Human serum stability monitored by 31P NMR; type: in vitro ADME; conditions: 37 °C, 7.5 h
# Experimental: This experiment was carried out as previously reported in Mehellou et al. 2020 and Slusarczyk, M.; Ferrari, V.; Serpi, M.; Gönczy, B.; Balzarini, J.; McGuigan, C; Symmetrical Diamidates as a Class of Phosphate Prodrugs to Deliver the 5'-Monophosphate Forms of Anticancer Nucleoside Analogues; ChemMedChem 2018, 13, 2305-2316 (hereinafter "McGuigan et al. 2018"), as well as Slusarczyk, M.; Lopez, M. H.; Balzarini, J.; Mason, M.; Jiang, W. G.; Blagden, S.; Thompson, E.; Ghazaly, E.; McGuigan, C. Application of ProTide technology to gemcitabine: a successful approach to overcome the key cancer resistance mechanisms leads to a new agent (NUC-1031) in clinical development. J. Med. Chem. 2014, 57, 1531-1542 (hereinafter "McGuigan et al. 2014").
# Briefly, 5.0 mg of the phosphonodiamidate ProPAgen 9b was dissolved in a mixture of 0.05 mL of DMSO and 0.15 mL D2O. After recording the first ^31P NMR data, 0.3 mL human serum (Merck Life Sciences) was added and monitored by NMR. The experiment was run on NMR ^31P mode and scanned every half an hour for 7.5 h. The incubation temperature was 37°C. Recorded data were processed and analysed with Bruker Topspin 2.1 software.
# ProPAgen 9b was incubated with human serum at 37 °C for 7.5 h and monitored by ^31P NMR spectroscopy. […]
compound,measurement,setting,value
"C/C(=C\CCP(=O)(N[C@@H](C)C(=O)OCc1ccccc1)N[C@@H](C)C(=O)OCc1ccccc1)CO [ProPAgen 14d, Dibenzyl 2,2'-((((E)-5-hydroxy-4-methylpent-3-en-1-yl)phosphoryl)bis(azane-diyl))-(2S, 2'S)-dipropionate]",sensitizing effects (specific lysis of T24 cells by Vγ9/Vδ2 T-cells),[1],much more potent
same,activation of Vγ9/Vδ2 T cells at the highest concentration studied,[2],less than that achieved with 10 µM
same,activation of Vγ9/Vδ2 T cells (rank in words),[2],most potent activation
same,concentration without CD8+ T cell activation relative to Vγ9/Vδ2 T-cell activation EC50,[3],"approx. 100,000 times"
same,activation of CD8+ T cells,[3],did not exhibit activation
"C/C(=C\CCP(=O)(N[C@@H](C)C(=O)OC(C)(C)C)N[C@@H](C)C(=O)OC(C)(C)C)CO [ProPAgen 14c, Di-tert-butyl 2,2'-((((E)-5-hydroxy-4-methylpent-3-en-1-yl)phosphoryl)bis(az-ane-diyl))-(2S,2'S)-dipropionate]",EC50,[2],6100 nM
"C/C(=C\COP(=O)(O)OP(=O)(O)O)CO [HMBPP, (E)-4-hydroxy-3-methylbut-2-enyl pyrophosphate, reference compound]",EC50,[4],0.06 to 0.5 nM
same,EC50,[2],181 nM
"COC(=O)[C@H](C)NP(=O)(N[C@@H](C)C(=O)OC)C(F)(F)C/C=C(\C)CO [ProPAgen 9a, Dimethyl 2,2'-((((E)-1,1-difluoro-5-hydroxy-4-methylpent-3-en-1-yl)phosphor-yl)bis(azanediyl))(2S,2'S)-dipropionate]",EC50,[2],191 nM
"C/C(=C\CCP(=O)(N[C@@H](C)C(=O)OC(C)C)N[C@@H](C)C(=O)OC(C)C)CO [ProPAgen 14b, Diisopropyl 2,2'-((((E)-5-hydroxy-4-methylpent-3-en-1-yl)phosphoryl)bis(az-anediyl))-(2S,2'S)-dipropionate]",EC50,[2],87 nM
"C/C(=C\CC(F)(F)P(=O)(N[C@@H](C)C(=O)OC(C)C)N[C@@H](C)C(=O)OC(C)C)CO [ProPAgen 9b, Diisopropyl 2,2'-((((E)-1,1-difluoro-5-hydroxy-4-methylpent-3-en-1-yl)phosphor-yl)bis-(azanediyl))(2S,2'S)-dipropionate]",time to appearance of three new 31P NMR peaks (metabolite 17),[5]; Trizma buffer pH 7.4,≤ 0.5 h
same,31P NMR peaks of parent prodrug after incubation,[5]; within 6.5 h,those of 9b were the minor
same,half-life,[6],> 7.5 h
same,EC50,"[2]; Homo sapiens, T-cell",167 nM
"C/C(=C\CC(F)(F)P(=O)(N[C@@H](C)C(=O)OC(C)(C)C)N[C@@H](C)C(=O)OC(C)(C)C)CO [ProPAgen 9c, Di-tert-butyl 2,2'-((((E)-1,1-difluoro-5-hydroxy-4-methylpent-3-en-1-yl)phosphoryl)bis(azanediyl))(2S,2'S)-dipropionate]",EC50,[2],1500 nM
"O=P(O)(O)C(O)(Cn1ccnc1)P(=O)(O)O [zoledronate, reference compound]",EC50,[4],3 to 500 nM
same,EC50,"[2]; Homo sapiens, T-cell",18500 nM
"C/C(=C\CC(F)(F)P(=O)(N[C@@H](C)C(=O)OCc1ccccc1)N[C@@H](C)C(=O)OCc1ccccc1)CO [ProPAgen 9d, Dibenzyl 2,2'-((((E)-1,1-difluoro-5-hydroxy-4-methylpent-3-en-1-yl)phosphoryl)-bis(azanediyl))(2S,2'S)-dipropionate]",sensitizing effects (specific lysis of T24 cells by Vγ9/Vδ2 T-cells),[1],much more potent
same,activation of Vγ9/Vδ2 T cells at the highest concentration studied,[2],less than that achieved with 10 µM
same,activation of Vγ9/Vδ2 T cells (rank in words),[2],most potent activation
same,concentration without CD8+ T cell activation relative to Vγ9/Vδ2 T-cell activation EC50,[3],"approx. 100,000 times"
same,activation of CD8+ T cells,[3],did not exhibit activation
